What is called CC50 is the concentration giving 50% cytotoxicity. What is called EC50 is the midpoint of the concentration-response curve.

The values that follow come from PMC8231256, “Influence of N-Methylation and Conformation on Almiramide Anti-Leishmanial Activity” (Molecules, 2021).

Data set [1] is described as follows: LM-1 macrophage cytotoxicity (Alamar Blue). It counts as cell-based, murine. The conditions noted are these: mouse. The method, then: The host cytotoxicity was evaluated by monitoring the survival rates of murine LM-1 macrophage at different concentrations of peptides 15–37 ([…]) over 24 h. […] Exceptionally, MeAla peptide amide 21 was 3.2- to 8-fold less toxic than the other peptide analogs.
The LM1- macrophages were grown in DMEM supplemented with 10% heat inactivated FBS. Cells at the concentration of 100,000 cells/mL were cultivated for 24 h in a 96-well plate (37 °C, 5% CO2). The culture medium was removed and fresh medium containing the appropriate drug and concentration was added to the cells, which were incubated for 24 h (37 °C, 5% CO2). Seven different concentrations were tested ([…]) as well as controls (without drugs). After 24 h, the culture medium was removed and replaced for fresh medium containing 10% Alamar Blue (Thermo Fisher Scientific, Waltham, MA, USA) and incubated for 2 h (37 °C, 5% CO2). Readings at 570 and 600 nm (Asys UVM340 Plate reader, Biochrom, Cambridge, UK) were taken and analyzed according to the manufacturer protocol. Survival rates at different drug concentrations and CC50 values were calculated using the Excel software.

The subject of data set [2] is L. infantum AmB1000.1 (resistant to amphotericin B) promastigotes. Type of data set: cell-based, Leishmania infantum. The following applies: for EC50: strain resistant to 1 µM amphotericin B, promastigotes, 72 h, 25 °C, 95% CI in brackets (n = 3), read-out: Ldi AmB-Res EC50. On the procedure:
(§1) The biological activity of peptides 15–37 was assessed against the L. infantum wild-type stain (WT), as well as mutants resistant to the common anti-leishmanial agents, such as antimony (Sb^III), amphotericin B (AmB) and miltefosine (MF): Sb2000.1, AmB1000.1 and MF200.5. Activity against Leishmania promastigotes was determined by monitoring the replication of parasites after 72 h of incubation at 25 °C in the presence of increasing concentrations of the different peptides […] and reported as EC50 values (Table 2). […] The greatest potencies were observed using analogs against the amphotericin B resistant strain (e.g., AmB1000.1).
(§2) The L. infantum (MHOM/MA/67/ITMAP-263) wild-type stain (WT), as well as the resistant mutants Sb2000.1, AmB1000.1 and MF200.5 [53, 54, 55, 56, 57, 58], resistant to antimony (Sb^III), amphotericin B (AmB) and miltefosine (MF), respectively, were grown in M199 medium at 25 °C supplemented with 10% fetal bovine serum, 5 μg/mL of haemin at pH 7.0 and 2000 μM Sb (Potassium antimonyl tartrate, Sigma-Aldrich), 200 μM of MF (Miltefosine, Cayman Chem., Ann Arbor, MI, USA) or 1 μM AmB (Amphotericin B solution, Sigma, Oakville, ON, Canada). Antileishmanial values were determined in Leishmania promastigotes by monitoring the replication of parasites after 72 h of incubation at 25 °C in the presence of increasing concentrations of the different peptides by measuring A600 using a Cytation 5 machine (BioTek, Winooski, VT, USA). EC50 values were calculated based on dose–response curves analyzed by non-linear regression with GraphPad Prism 8.4.3 software (GraphPad Software, La Jolla, CA, USA). An average of at least three independent biological replicates from independent cultures was performed for each determination.

Data set [3] has as its system L. infantum Sb2000.1 (resistant to antimony) promastigotes. Type of data set: cell-based, Leishmania infantum. The conditions noted are these: strain resistant to 2 mM antimonials, 72 h, 25 °C, 95% CI in brackets (n = 3), read-out: Ldi Sb-Res EC50. The method, then:
as §1, §2

Data set [4] has as its system L. infantum (MHOM/MA/67/ITMAP-263) wild-type strain (WT) promastigotes. It counts as cell-based, Leishmania infantum. The following applies: for EC50: 72 h; for Selectivity Index: SI = CC50 (LM-1 macrophage)/EC50 Ldi WT. The method, then: as §1, §2
Data set [5] has as its system L. infantum MF200.5 (resistant to miltefosine) promastigotes. It counts as cell-based, Leishmania infantum. The conditions noted are these: for EC50: strain resistant to 200 µM miltefosine, promastigotes, 72 h, 25 °C, 95% CI in brackets (n = 3), read-out: Ldi MF-Res EC50. On the procedure:
as §1, §2

The test system of the next data set is Leishmania donovani. On the set-up: method as in PMID 20441198. The following applies: cited from earlier work; for selectivity index (CC50/EC50): Vero kidney cells CC50 vs L. donovani.
The mark [6] stands for this setting: promastigotes, 25 °C, 95% confidence interval in brackets (n = 3), read-out: Ldi WT EC50.
[7] abbreviates: MHOM/MA/67/ITMAP-263) wild-type strain (WT) promastigotes.

Where two headings read alike, the source gives them in different places.

For `C#CCCCCC(=O)N[C@H](C(=O)N[C@H](C(=O)N[C@H]1CCN([C@@H](C)C(=O)N[C@@H](Cc2ccccc2)C(=O)O)C1=O)C(C)C)C(C)C` [peptide 25, HCC(CH2)4CO-Val-Val-Agl-Ala-Phe-OH], the CC50 at 24 h in data set [1] was 416 µM. The EC50 in data set [2], in data set [3], in data set [4] (setting [6]) and in data set [5] was over 300 µM in each case.
`C#CCCCCC(=O)N(C)[C@H]1CCN([C@H](C(=O)N(C)[C@H](C(=O)N(C)[C@@H](C)C(=O)N(C)[C@@H](Cc2ccccc2)C(=O)O)C(C)C)C(C)C)C1=O` [peptide 26, HCC(CH2)4CO-Agl(Me)-Val-Val(Me)-Ala-Phe(Me)-OH] displayed a CC50 at 24 h in data set [1] of 316 µM. The EC50 in data set [2] is 252 µM; in data set [3], 220 µM; in data set [4] (setting [7]), 217 µM; in data set [5] it was 224 µM. The “Selectivity Index” value in data set [4] stood at 1.46.
As to `C#CCCCCC(=O)N(C)[C@H](C(=O)N(C)[C@H]1CCN([C@H](C(=O)N(C)[C@@H](C)C(=O)N(C)[C@@H](Cc2ccccc2)C(=O)O)C(C)C)C1=O)C(C)C` [peptide 27, HCC(CH2)4CO-Val(Me)-Agl(Me)-Val-Ala(Me)-Phe(Me)-OH], the CC50 at 24 h in data set [1] (LM-1 macrophages, 24 h, Alamar Blue, read-out: CC50) came to 295 µM. Moreover, the EC50 in data set [2] was over 300 µM; in data set [3], 296 µM; in data set [4] (setting [6]), 284 µM; in data set [5], over 300 µM. Also, the “Selectivity Index” value in data set [4] was 1.0.
On to `C#CCCCCC(=O)N(C)[C@H](C(=O)N(C)[C@H](C(=O)N(C)[C@H]1CCN([C@@H](C)C(=O)N(C)[C@@H](Cc2ccccc2)C(=O)O)C1=O)C(C)C)C(C)C` [peptide 28, HCC(CH2)4CO-Val(Me)-Val(Me)-Agl(Me)-Ala-Phe(Me)-OH], for which the CC50 at 24 h in data set [1] amounted to 245 µM. Also, the EC50 is over 300 µM in data set [2], 250 µM in data set [3], 255 µM in data set [4] (setting [7]) and 282 µM in data set [5]. Also, the “Selectivity Index” value in data set [4] came out at 0.9.
`C#CCCCCC(=O)N[C@H]1CCN([C@H](C(=O)N[C@H](C(=O)N[C@@H](C)C(=O)N[C@@H](Cc2ccccc2)C(=O)NCCCCCCN)C(C)C)C(C)C)C1=O` [peptide 29, HCC(CH2)4CO-Agl-Val-Val-Ala-Phe-NH(CH2)6NH2]: in data set [1], half-maximal cytotoxicity (CC50 at 24 h) was put at 416 µM. The EC50 was 72 µM in data set [2], 90.4 µM in data set [3], 75 µM in data set [4] (setting [7]) and 67.9 µM in data set [5]. For the same molecule, the “Selectivity Index” value in data set [4] is 5.5.
`C#CCCCCC(=O)N[C@H](C(=O)N[C@H]1CCN([C@H](C(=O)N[C@@H](C)C(=O)N[C@@H](Cc2ccccc2)C(=O)NCCCCCCN)C(C)C)C1=O)C(C)C` [peptide 30, HCC(CH2)4CO-Val-Agl-Val-Ala-Phe-NH(CH2)6NH2] registered a CC50 at 24 h in data set [1] of 407 µM. The EC50 in data set [2] came out at 114 µM; in data set [3] it was 37.6 µM; in data set [4] (setting [7]), 47.4 µM; in data set [5], 129 µM. Also, the “Selectivity Index” value in data set [4] stood at 8.6.
Consider `C#CCCCCC(=O)N[C@H](C(=O)N[C@H](C(=O)N[C@H]1CCN([C@@H](C)C(=O)N[C@@H](Cc2ccccc2)C(=O)NCCCCCCN)C1=O)C(C)C)C(C)C` [peptide 31, HCC(CH2)4CO-Val-Val-Agl-Ala-Phe-NH(CH2)6NH2], for which the CC50 at 24 h in data set [1] was 389 µM. In addition, the EC50 in data set [2] worked out at 130 µM; in data set [3], 48.8 µM; in data set [4] (setting [7]) it was 64.6 µM; in data set [5], 126 µM. In addition, in data set [4], the “Selectivity Index” value worked out at 6.0.
Molecule `C#CCCCCC(=O)N[C@H](C(=O)N[C@H](C(=O)N[C@H](C(=O)N[C@H]1CCN([C@@H](Cc2ccccc2)C(=O)NCCCCCCN)C1=O)C(C)C)C(C)C)C(C)C` [peptide 32, HCC(CH2)4CO-Val-Val-Val-Agl-Phe-NH(CH2)6NH2] showed a CC50 at 24 h in data set [1] of 389 µM. Moreover, the EC50 turned out to be 90.1 µM in data set [2], 87.8 µM in data set [3], 91.2 µM in data set [4] (setting [7]) and 84.2 µM in data set [5]. In addition, the “Selectivity Index” value in data set [4] is 4.3.
Turning to `C#CCCCCC(=O)N(C)[C@H]1CCN([C@H](C(=O)N(C)[C@H](C(=O)N(C)[C@@H](C)C(=O)N(C)[C@@H](Cc2ccccc2)C(=O)NCCCCCCN)C(C)C)C(C)C)C1=O` [peptide 33, HCC(CH2)4CO-Agl(Me)-Val-Val(Me)-Ala(Me)-Phe(Me)-NH(CH2)6NH2], it took 407 µM to reach half-maximal cytotoxicity in data set [1] (CC50 at 24 h). Also, the EC50 stood at 184 µM in data set [2], 140 µM in data set [3], 119 µM in data set [4] (setting [7]) and 191 µM in data set [5]. In data set [4], the “Selectivity Index” value is listed as 3.4.
Take `C#CCCCCC(=O)N(C)[C@H](C(=O)N(C)[C@H](C(=O)N(C)[C@H]1CCN([C@@H](C)C(=O)N(C)[C@@H](Cc2ccccc2)C(=O)NCCCCCCN)C1=O)C(C)C)C(C)C` [peptide 35, HCC(CH2)4CO-Val(Me)-Val(Me)-Agl(Me)-Ala-Phe(Me)-NH(CH2)6NH2]: the CC50 at 24 h in data set [1] worked out at 371 µM. Besides, the “fold more active than nonmethylated counterpart” value is 1.4 fold in data set [2] (AmB1000.1, 17 vs 16, 35 vs 31) and 1.5 fold in data set [5] (MF200.5, 35 vs 31). Further, the concentration for a half-maximal effect (EC50) came out at 92 µM in data set [2], 81.5 µM in data set [3], 78.6 µM in data set [4] (setting [7]) and 85.3 µM in data set [5]. Further, the “Selectivity Index” value in data set [4] was 4.7.
On to `C#CCCCCC(=O)Nn1c(C)cn([C@H](C(=O)N[C@H](C(=O)N[C@@H](C)C(=O)N[C@@H](Cc2ccccc2)C(=O)O)C(C)C)C(C)C)c1=O` [peptide 36, HCC(CH2)4CO-(5-Me)Nai-Val-Val-Ala-Phe-OH], for which the CC50 at 24 h in data set [1] came to 436 µM. Further, the half-maximal effective concentration (EC50) in data set [2], in data set [3], in data set [4] (setting [6]) and in data set [5] was over 300 µM throughout.
In data set [1], `C#CCCCCC(=O)N[C@H](C(=O)Nn1c(C)cn([C@H](C(=O)N[C@@H](C)C(=O)N[C@@H](Cc2ccccc2)C(=O)O)C(C)C)c1=O)C(C)C` [peptide 37, HCC(CH2)4CO-Val-(5-Me)Nai-Val-Ala-Phe-OH] had a CC50 at 24 h of 407 µM. In addition, the EC50 in data set [2], in data set [3], in data set [4] (setting [6]) and in data set [5] was over 300 µM each time.
As to Almiramide B [compound 2], in the data set on Leishmania donovani, the “selectivity index (CC50/EC50)” value is given as 21.8 and the “activity against Leishmania donovani” value is given as “low μM activity”.
Regarding Almiramide C [compound 3], in the data set with Leishmania donovani, the “selectivity index (CC50/EC50)” value was 17.4 and the “activity against Leishmania donovani” value is recorded as “low μM activity”.
For almiramide A [compound 1], the “activity against Leishmania donovani” value in the data set with Leishmania donovani was “inactive”.
